Measured values taken from patent US6248739A, “Quinolinecarboxamides as antiviral agents” (Pharmacia & Upjohn Company, priority 1999, dated 2001).
Like-named read-outs stand apart in the source and are kept apart here.

Experiments:
HSV polymerase = HSV polymerase (Human herpesvirus 1, UniProt P04293); assay: HSV polymerase assay (Table 1); format: biochemical
HCMV polymerase = molecular target: T1, HCMV polymerase (Human cytomegalovirus, UniProt P08546); assay: biochemical
T1 construct: made in house; host or cells: recombinant baculovirus-infected SF-9 insect cells
Summary of the method: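 Scintillation proximity assay with baculovirus/SF-9-expressed HCMV polymerase, 90 nM ³H-dTTP and 6 nM biotinylated poly(dA)-oligo(dT) in HEPES pH 7.5/KCl/MgCl2/BSA, ±2 mM CHAPS, 25 or 37 °C, 30 min for HCMV. Modified version: compounds diluted in 100% DMSO, 4.5 mM DTT added. IC50 from linear regression.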

VZV polymerase = VZV polymerase (Varicella-zoster virus, UniProt P09252); assay: VZV polymerase assay (Table 1); format: biochemical
[1] = HCMV polymerase, SPA, modified assay: compounds in 100% DMSO, 4.5 mM DTT

T1 sequence (P08546 whole entry): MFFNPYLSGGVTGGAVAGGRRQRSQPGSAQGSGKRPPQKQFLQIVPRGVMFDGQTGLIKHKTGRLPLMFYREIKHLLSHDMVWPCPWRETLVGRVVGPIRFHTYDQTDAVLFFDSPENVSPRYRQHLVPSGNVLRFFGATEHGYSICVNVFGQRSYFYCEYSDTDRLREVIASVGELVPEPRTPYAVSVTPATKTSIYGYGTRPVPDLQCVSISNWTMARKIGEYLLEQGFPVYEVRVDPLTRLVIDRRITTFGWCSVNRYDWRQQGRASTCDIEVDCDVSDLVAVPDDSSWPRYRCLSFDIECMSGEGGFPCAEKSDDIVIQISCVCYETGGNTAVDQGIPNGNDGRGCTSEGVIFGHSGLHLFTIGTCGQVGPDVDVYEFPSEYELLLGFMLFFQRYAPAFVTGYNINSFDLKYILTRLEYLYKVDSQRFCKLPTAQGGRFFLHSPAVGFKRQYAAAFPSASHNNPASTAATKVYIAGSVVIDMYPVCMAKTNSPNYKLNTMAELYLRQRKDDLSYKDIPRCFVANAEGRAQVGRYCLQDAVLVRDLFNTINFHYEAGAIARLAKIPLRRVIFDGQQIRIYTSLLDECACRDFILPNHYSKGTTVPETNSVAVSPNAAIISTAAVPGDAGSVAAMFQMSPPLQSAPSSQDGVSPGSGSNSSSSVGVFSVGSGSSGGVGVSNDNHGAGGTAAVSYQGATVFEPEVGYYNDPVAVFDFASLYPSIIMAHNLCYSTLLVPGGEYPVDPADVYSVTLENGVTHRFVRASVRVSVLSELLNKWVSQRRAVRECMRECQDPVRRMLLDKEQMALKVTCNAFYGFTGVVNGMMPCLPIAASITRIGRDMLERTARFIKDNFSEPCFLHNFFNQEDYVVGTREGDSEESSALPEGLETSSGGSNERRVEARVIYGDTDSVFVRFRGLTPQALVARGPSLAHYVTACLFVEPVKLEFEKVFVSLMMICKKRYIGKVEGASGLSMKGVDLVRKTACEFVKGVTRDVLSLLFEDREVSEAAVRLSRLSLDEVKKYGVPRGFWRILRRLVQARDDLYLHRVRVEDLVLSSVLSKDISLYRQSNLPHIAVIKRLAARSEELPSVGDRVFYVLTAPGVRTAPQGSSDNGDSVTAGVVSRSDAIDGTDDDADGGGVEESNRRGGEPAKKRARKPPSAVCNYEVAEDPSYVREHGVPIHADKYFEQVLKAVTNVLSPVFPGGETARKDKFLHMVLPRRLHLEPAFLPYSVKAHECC
Chain of VZV polymerase (P09252 whole entry): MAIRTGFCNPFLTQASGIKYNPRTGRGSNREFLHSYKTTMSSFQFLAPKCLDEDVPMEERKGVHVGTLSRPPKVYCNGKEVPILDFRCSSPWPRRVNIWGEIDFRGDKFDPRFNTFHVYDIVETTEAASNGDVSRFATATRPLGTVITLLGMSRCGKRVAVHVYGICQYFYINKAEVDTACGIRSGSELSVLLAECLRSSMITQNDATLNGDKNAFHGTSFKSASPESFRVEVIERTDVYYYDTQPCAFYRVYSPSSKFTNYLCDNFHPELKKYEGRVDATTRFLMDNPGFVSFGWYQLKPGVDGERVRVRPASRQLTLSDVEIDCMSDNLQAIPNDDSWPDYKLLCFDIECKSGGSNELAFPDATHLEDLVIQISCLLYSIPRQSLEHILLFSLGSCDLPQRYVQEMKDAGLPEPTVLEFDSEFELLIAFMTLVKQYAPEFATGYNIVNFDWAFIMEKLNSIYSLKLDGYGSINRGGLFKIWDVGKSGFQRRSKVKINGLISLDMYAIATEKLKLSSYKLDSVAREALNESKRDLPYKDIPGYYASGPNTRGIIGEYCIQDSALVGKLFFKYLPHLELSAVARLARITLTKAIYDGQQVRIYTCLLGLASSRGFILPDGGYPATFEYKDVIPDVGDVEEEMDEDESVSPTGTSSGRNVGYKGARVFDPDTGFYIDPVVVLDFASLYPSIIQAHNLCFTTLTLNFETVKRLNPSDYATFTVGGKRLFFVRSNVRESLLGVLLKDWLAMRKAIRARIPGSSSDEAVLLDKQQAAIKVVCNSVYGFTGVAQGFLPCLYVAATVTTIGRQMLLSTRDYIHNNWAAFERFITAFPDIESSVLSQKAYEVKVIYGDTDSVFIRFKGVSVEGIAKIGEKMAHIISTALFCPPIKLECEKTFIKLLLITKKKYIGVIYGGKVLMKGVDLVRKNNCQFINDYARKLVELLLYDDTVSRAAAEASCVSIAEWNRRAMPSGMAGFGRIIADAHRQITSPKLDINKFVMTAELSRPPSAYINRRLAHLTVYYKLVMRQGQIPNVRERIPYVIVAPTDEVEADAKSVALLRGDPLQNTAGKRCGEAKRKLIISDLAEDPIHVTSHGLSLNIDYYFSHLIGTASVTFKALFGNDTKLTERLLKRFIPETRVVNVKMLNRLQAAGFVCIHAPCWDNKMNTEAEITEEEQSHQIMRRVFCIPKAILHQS
Chain of HSV polymerase (P04293 whole entry): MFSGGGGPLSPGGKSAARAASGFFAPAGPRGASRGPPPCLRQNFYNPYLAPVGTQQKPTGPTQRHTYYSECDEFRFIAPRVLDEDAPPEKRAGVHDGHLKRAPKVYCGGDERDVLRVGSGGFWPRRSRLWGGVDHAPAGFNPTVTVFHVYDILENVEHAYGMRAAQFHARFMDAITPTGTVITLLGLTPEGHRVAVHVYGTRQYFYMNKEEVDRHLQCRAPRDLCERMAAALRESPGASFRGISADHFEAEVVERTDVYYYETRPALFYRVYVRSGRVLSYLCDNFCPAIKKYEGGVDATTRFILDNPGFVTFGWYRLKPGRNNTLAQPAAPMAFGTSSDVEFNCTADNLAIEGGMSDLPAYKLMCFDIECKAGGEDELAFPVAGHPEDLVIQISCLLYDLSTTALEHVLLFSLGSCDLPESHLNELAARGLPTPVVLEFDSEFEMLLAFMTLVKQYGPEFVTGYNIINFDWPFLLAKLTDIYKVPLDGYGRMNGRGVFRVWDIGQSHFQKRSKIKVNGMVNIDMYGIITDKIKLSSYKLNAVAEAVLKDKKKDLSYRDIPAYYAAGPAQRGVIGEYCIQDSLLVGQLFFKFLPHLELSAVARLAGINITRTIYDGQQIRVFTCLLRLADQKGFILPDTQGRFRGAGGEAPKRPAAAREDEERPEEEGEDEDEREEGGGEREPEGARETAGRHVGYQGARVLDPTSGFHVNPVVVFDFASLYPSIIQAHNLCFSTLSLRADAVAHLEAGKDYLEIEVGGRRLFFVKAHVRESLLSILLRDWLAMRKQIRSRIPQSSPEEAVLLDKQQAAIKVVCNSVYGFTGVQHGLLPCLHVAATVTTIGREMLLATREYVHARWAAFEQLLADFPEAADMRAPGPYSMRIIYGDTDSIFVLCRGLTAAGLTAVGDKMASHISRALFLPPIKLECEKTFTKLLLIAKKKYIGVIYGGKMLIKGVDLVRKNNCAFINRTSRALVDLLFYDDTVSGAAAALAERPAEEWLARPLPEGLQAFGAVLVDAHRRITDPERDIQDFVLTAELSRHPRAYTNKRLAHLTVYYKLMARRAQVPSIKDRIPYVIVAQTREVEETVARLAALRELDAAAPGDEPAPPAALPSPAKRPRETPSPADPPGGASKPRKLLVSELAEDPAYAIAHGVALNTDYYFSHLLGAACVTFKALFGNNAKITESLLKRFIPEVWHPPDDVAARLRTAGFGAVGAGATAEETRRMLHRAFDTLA

| IC50 (HSV polymerase) [nM] | IC50 (HCMV polymerase; [1]) [nM] | IC50 (VZV polymerase) [nM] | Structure (SMILES) | IC50 (HCMV polymerase) [nM] |
| --- | --- | --- | --- | --- |
| 1000 | 600 | 1200 | Cn1cc(C(=O)NCc2ccc(Cl)cc2)c(=O)c2cc(CCCO)cc(OCCO)c21 [Example 4] |  |
| 3000 | 2000 | 1900 | CCN(CC)CCn1cc(C(=O)NCc2ccc(Cl)cc2)c(=O)c2cc(C#CCO)ccc21 [Example 12, N-(4-Chlorobenzyl)-1-[2-(diethylamino)ethyl]-6-(3-hydroxy-1-propynyl)-4-oxo-1,4-dihydro-3-quinolinecarboxamide] |  |
| 2000 | 800 | 1100 | CC(C)N(CCn1cc(C(=O)NCc2ccc(Cl)cc2)c(=O)c2cc(C#CCO)ccc21)C(C)C [Example 17, N-(4-Chlorobenzyl)-1-[2-(diisopropylamino)ethyl]-6-(3-hydroxy-1-propynyl)-4-oxo-1,4-dihydro-3-quinolinecarboxamide] |  |
| 1600 | 1600 | 1500 | O=C(NCc1ccc(Cl)cc1)c1cn(C2CC2)c2ccc(C#CCO)cc2c1=O [Example 25, N-(4-Chlorobenzyl)-1-cyclopropyl-6-(3-hydroxy-1-propynyl)-4-oxo-1,4-dihydro-3-quinolinecarboxamide] |  |
| 780 | 530 | 490 | O=C(NCc1ccc(Cl)cc1)c1cn(C2CC2)c2ccc(CCCO)cc2c1=O [Example 26, N-(4-Chlorobenzyl)-1-cyclopropyl-6-(3-hydroxypropyl)-4-oxo-1,4-dihydro-3-quinolinecarboxamide] |  |
| 1300 | 1100 | 1000 | Cn1cc(C(=O)NCc2ccc(Cl)cc2)c(=O)c2cc(C#CCO)ccc21 [Example 31, N-(4-Chlorobenzyl)-6-(3-hydroxy-1-propynyl)-1-methyl-4-oxo-1,4-dihydro-3-quinolinecarboxamide] |  |
| 2400 | 2300 | 1400 | O=C(NCc1ccc(Cl)cc1)c1cn(CCOCCO)c2ccc(C#CCO)cc2c1=O [Example 55, N-(4-Chlorobenzyl)-1-[2-(2-hydroxyethoxy)ethyl]-6-(3-hydroxy-1-propynyl)-4-oxo-1,4-dihydro-3-quinolinecarboxamide] |  |
| 900 | 1100 | 500 | CSCCCn1cc(C(=O)NCc2ccc(Cl)cc2)c(=O)c2cc(CN3CCOCC3)ccc21 [Example 61, N-(4-Chlorobenzyl)-1-[3-(methylsulfanyl)propyl]-6-(4-morpholinylmethyl)-4-oxo-1,4-dihydro-3-quinolinecarboxamide] |  |
| 1100 | 1300 | 610 | O=C(NCc1ccc(Cl)cc1)c1cn(CC#CCO)c2ccc(CN3CCOCC3)cc2c1=O [Example 62, N-(4-Chlorobenzyl)-1-(4-hydroxy-2-butynyl)-6-(4-morpholinylmethyl)-4-oxo-1,4-dihydro-3-quinolinecarboxamide] |  |
| 1000 | 900 | 630 | C[S+]([O-])CCCn1cc(C(=O)NCc2ccc(Cl)cc2)c(=O)c2cc(CN3CCOCC3)ccc21 (centres unmarked) [Example 65, N-(4-Chlorobenzyl)-1-[3-(methylsulfinyl)propyl]-6-(4-morpholinylmethyl)-4-oxo-1,4-dihydro-3-quinolinecarboxamide] |  |
| 2800 | 890 | 1600 | CN(Cc1ccc2c(c1)c(=O)c(C(=O)NCc1ccc(Cl)cc1)cn2C)CC(O)c1ccc(O)cc1 (centres unmarked) [Example 74, N-(4-Chlorobenzyl)-6-([(2-hydroxy-2-[4-hydroxyphenyl]-ethyl) [methyl]amino]methyl)-1-methyl-4-oxo-1,4-dihydro-3-quinolinecarboxamide] |  |
| 4400 | 3300 | 4000 | Cn1cc(C(=O)NCc2ccc(Cl)cc2)c(=O)c2cc(CN3CC(O)C3)ccc21 [Example 75, N-(4-Chlorobenzyl)-6-[(3-hydroxy-1-azetidinyl)methyl]-1-methyl-4-oxo-1,4-dihydro-3-quinolinecarboxamide] |  |
| < 310 | 180 | < 310 | O=C(NCc1ccc(Cl)cc1)c1cn(CSc2ccccc2)c2ccc(CN3CCOCC3)cc2c1=O [Example 76, N-(4-Chlorobenzyl)-6-(morpholinylmethyl)-4-oxo-1-[(phenylsulfanyl)methyl]-1,4-dihydro-3-quinolinecarboxamide] |  |
| 4100 | 1300 | 2100 | COc1cc(C(O)CN(C)Cc2ccc3c(c2)c(=O)c(C(=O)NCc2ccc(Cl)cc2)cn3C)ccc1O (centres unmarked) [Example 77, N-(4-Chlorobenzyl)-6-([(2-hydroxy-2-[4-hydroxy-3-methoxyphenyl]ethyl)[methyl]amino]methyl)-1-methyl-4-oxo-1,4-dihydro-3-quinolinecarboxamide] |  |
|  | 420 |  | O=C(NCc1ccc(Cl)cc1)c1cn(N2CCOCC2)c2ccc(CN3CCOCC3)cc2c1=O [Example 112, N-(4-Chlorobenzyl)-1-(4-morpholinyl)-6-(4-morpholinylmethyl)-4-oxo-1,4-dihydro-3-quinolinecarboxamide] |  |
|  | 640 |  | CN1CCN(n2cc(C(=O)NCc3ccc(Cl)cc3)c(=O)c3cc(CN4CCOCC4)ccc32)CC1 [Example 113, N-(4Chlorobenzyl)-1-(4methyl-1-piperazinyl)-6-(4-morpholinylmethyl)-4-oxo-1,4-dihydro-3-quinolinecarboxamide] |  |
|  | 880 |  | O=C(NCc1ccc(Cl)cc1)c1cn(N2CCCCC2)c2ccc(CN3CCOCC3)cc2c1=O [Example 114, N-(4-Chlorobenzyl)-6-(4-morpholinylmethyl)-4-oxo-1-(1-piperidinyl)-1,4-dihydro-3-quinolinecarboxamide] |  |
|  | 620 |  | O=C(NCc1ccc(Cl)cc1)c1cn(N2CCCC2)c2ccc(CN3CCOCC3)cc2c1=O [Example 115, N-(4-Chlorobenzyl)-6-(4-morpholinylmethyl)-4-oxo-1-(1-pyrrolidinyl)-1,4-dihydro-3-quinolinecarboxamide] |  |
|  | 14000 |  | COC[C@H]1CCCN1n1cc(C(=O)NCc2ccc(Cl)cc2)c(=O)c2cc(CN3CCOCC3)ccc21 [Example 116, N-(4-Chlorobenzyl)-1-[(2R)-2-(methoxymethyl)pyrrolidinyl]-6-(4-morpholinylmethyl)-4-oxo-1,4-dihydro-3-quinolinecarboxamide] |  |
|  | 1500 |  | CN(C)n1cc(C(=O)NCc2ccc(Cl)cc2)c(=O)c2cc(CN3CCOCC3)ccc21 [Example 117, N-(4-Chlorobenzyl)-1-(dimethylamino)-6-(4-morpholinylmethyl)-4-oxo-1,4-dihydro-3-quinolinecarboxamide] |  |
|  | 1100 |  | Nn1cc(C(=O)NCc2ccc(Cl)cc2)c(=O)c2cc(C#CCO)ccc21 [Example 118, 1-Amino-N-(4-chlorobenzyl)-6(3-hydroxy-1-propynyl)-4-oxo-1,4-dihydro-3-quinolinecarboxamide] |  |
|  | 500 |  | Nn1cc(C(=O)NCc2ccc(Cl)cc2)c(=O)c2cc(CCCO)ccc21 [Example 119, 1-Amino-N-(4-chlorobenzyl)-6-(3-hydroxypropyl)-4-oxo-1,4-dihydro-3-quinolinecarboxamide] |  |
|  | 2500 |  | CN(C)n1cc(C(=O)NCc2ccc(Cl)cc2)c(=O)c2cc(C#CCO)ccc21 [Example 120, N-(4-Chlorobenzyl)-1-(dimethylamino)-6-(3-hydroxy-1-propynyl)-4-oxo-1,4-dihydro-3-quinolinecarboxamide] |  |
|  | 3900 |  | CN(C)n1cc(C(=O)NCc2ccc(Cl)cc2)c(=O)c2ccccc21 [Example 121, N-(4-Chlorobenzyl)-1-(dimethylamino)-4-oxo-1,4-dihydro-3-quinolinecarboxamide] |  |
|  | 2800 |  | C=CCOn1cc(C(=O)NCc2ccc(Cl)cc2)c(=O)c2ccccc21 [Example 122, 1-(Allyloxy)-N-(4-chlorobenzyl)-4-oxo-1,4-dihydro-3-quinolinecarboxamide] |  |
|  | 8200 |  | COn1cc(C(=O)NCc2ccc(Cl)cc2)c(=O)c2ccccc21 [Example 123, N-(4-Chlorobenzyl)-1-methoxy-4-oxo-1,4-dihydro-3-quinolinecarboxamide] |  |
|  | 1200 |  | O=C(NCc1ccc(Br)cc1)c1cn(N2CCOCC2)c2ccc(CN3CCOCC3)cc2c1=O [Example 124, N-(4-Bromobenzy)-1-(4-morpholinyl)-6-(4-morpholinylmethyl)-4-oxo-1,4-dihydro-3-quinolinecarboxamide] |  |
|  | 1100 |  | O=C(NCc1ccc(F)cc1)c1cn(N2CCOCC2)c2ccc(CN3CCOCC3)cc2c1=O [Example 125, N-(4-Fluorobenzyl)-1-(4-morpholinyl)-6-(4-morpholinylmethyl)-4-oxo-1,4-dihydro-3-quinolinecarboxamide] |  |

| Structure (SMILES) | IC50 (HSV polymerase) [nM] | IC50 (HCMV polymerase; [1]) [nM] | IC50 (VZV polymerase) [nM] | IC50 (HCMV polymerase) [nM] |
| --- | --- | --- | --- | --- |
| O=C(NCc1ccc(Cl)cc1)c1cn(CCN2CCOCC2)c2ccc(C=CCO)cc2c1=O [Example 7, N-(4-Chlorobenzyl)-6-(3-hydroxy-1-propenyl)-1-[2-(4-morpholinyl)ethyl]-4-oxo-1,4-dihydro 3-quinolinecarboxamide] | 1100 |  | 770 | 1000 |
| O=C(NCc1ccc(Cl)cc1)c1cn(CCN2CCCCC2)c2ccc(C#CCO)cc2c1=O [Example 14, N-(4-Chlorobenzyl)-6-(3-hydroxy-1-propynyl)-1-[2-(1-piperidinyl)ethyl]-4-oxo-1,4-dihydro-3-quinolinecarboxamide] | 1200 |  | 1100 | 1300 |
